# Results from PubChem BioAssay (NCI).
#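 Values below derive from 48-hour exposures of cells grown in 96-well plates, with endpoints linearly interpolated between the two concentrations bracketing the appropriate inhibition level. At the TGI there is no net growth.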
# System: CAKI-1 renal
# Test: DTP human tumour cell line panel, 48 h
row,Structure (SMILES),TGI [µM]
1,COc1cc2c3c(cc(Cl)nc3c1OC)C(O)(CC(=O)c1ccccc1)C(=O)N2 (stereo not given),31.6
2,Cc1ccc(S[C@@H](C)[C@@](O)(C(N)=O)c2ccccc2)cc1,30.7
3,CN1CCN([C@H]2C[C@H]3[C@@H]4CC=C5C[C@@H](O)CC[C@]5(C)[C@H]4CC[C@]3(C)[C@H]2O)CC1,> 100
4,CC(C)c1ccc(/C=C2\CSCC3=C2N=C2SCC(=O)N2C3c2ccc(C(C)C)cc2)cc1 (stereo not given),> 100
5,CCOC(=O)CCC(NC(=O)c1ccc(Nc2nc3ccccc3nc2C(=O)OCC)cc1)C(=O)OCC (stereo not given),14.4
6,CC(=O)c1sc2[n+](c1C)C(=O)/C(=C\c1ccccc1Cl)S2,41
7,CC(NC(=O)C(Cc1ccc(OC(=O)c2ccccc2)cc1)NC(=O)OC(C)(C)C)C(=O)NCC(=O)NC(Cc1ccccc1)C(=O)NN (stereo not given),> 100
8,C[C@H](CCC(=O)NCC(=O)O)[C@H]1CC[C@H]2[C@@H]3[C@H](O)C[C@@H]4C[C@H](O)CC[C@]4(C)[C@H]3CC[C@]12C,> 100
9,CN(C)/C=C/C=C(/C=N/S(=O)(=O)C(F)(F)F)C1C=CN(S(=O)(=O)C(F)(F)F)C=C1,76.6
10,Cc1cc(=O)oc2c(CNC(CC(C)C)C(=O)O)c(O)ccc12 (stereo not given),> 100
11,COC1CC(OC2C(C)OC(OC3C(C)OC(OC4C(C)OC(O[C@H]5CC[C@@]6(C)C(=CC[C@]7(O)[C@@H]6C[C@@H](O)[C@@]6(C)[C@]7(O)CC[C@@]6(O)C(C)=O)C5)CC4OC)CC3OC)CC2OC)OC(C)C1O (stereo not given in full),> 12.5
12,Cc1ccc2c(c1C)C(=O)/C(=C/c1cccc(C)c1C(=O)O)C2,> 100
13,O=C1N(c2ccccc2)C(=S)/C(=C/c2ccc(Cl)cc2)N1c1ccc(Cl)cc1,> 100
14,O=C1C=C(N2CCN(CCOCCO)CC2)C(=O)c2c(O)ccc(O)c21,29.3
15,CC/C(N)=N\NC(=O)OC(C)(C)C,> 100
16,CC(=O)NC1C(OCc2ccccc2)OC(CO)C(O)C1OCC(=O)N[C@@H](C)C(=O)N[C@H](CCC(=O)NCCCNc1ccc([N+](=O)[O-])c2[nH]c3ccccc3c(=O)c12)C(N)=O (stereo not given in full),> 100
17,CCOC(=O)c1cc(Br)c(-c2cc(C)co2)[nH]1,> 100
18,O=P(O)(O)CN1CCNCCN(CP(=O)(O)O)CC1,> 100
19,c1cc2c(cc1C1=NCCN1)c1cc(C3=NCCN3)ccc1n2CC1CCCCC1,> 100

# System: KM12 colon
# Test: DTP human tumour cell line panel, 48 h
row,Structure (SMILES),TGI [µM]
1,COc1cc2c3c(cc(Cl)nc3c1OC)C(O)(CC(=O)c1ccccc1)C(=O)N2 (stereo not given),31.3
2,Cc1ccc(S[C@@H](C)[C@@](O)(C(N)=O)c2ccccc2)cc1,> 100
3,CN1CCN([C@H]2C[C@H]3[C@@H]4CC=C5C[C@@H](O)CC[C@]5(C)[C@H]4CC[C@]3(C)[C@H]2O)CC1,> 86.3
4,CC(C)c1ccc(/C=C2\CSCC3=C2N=C2SCC(=O)N2C3c2ccc(C(C)C)cc2)cc1 (stereo not given),> 100
5,CCOC(=O)CCC(NC(=O)c1ccc(Nc2nc3ccccc3nc2C(=O)OCC)cc1)C(=O)OCC (stereo not given),> 100
6,CC(=O)c1sc2[n+](c1C)C(=O)/C(=C\c1ccccc1Cl)S2,35.2
7,CC(NC(=O)C(Cc1ccc(OC(=O)c2ccccc2)cc1)NC(=O)OC(C)(C)C)C(=O)NCC(=O)NC(Cc1ccccc1)C(=O)NN (stereo not given),> 100
8,C[C@H](CCC(=O)NCC(=O)O)[C@H]1CC[C@H]2[C@@H]3[C@H](O)C[C@@H]4C[C@H](O)CC[C@]4(C)[C@H]3CC[C@]12C,> 100
9,CN(C)/C=C/C=C(/C=N/S(=O)(=O)C(F)(F)F)C1C=CN(S(=O)(=O)C(F)(F)F)C=C1,71.1
10,Cc1cc(=O)oc2c(CNC(CC(C)C)C(=O)O)c(O)ccc12 (stereo not given),> 100
11,COC1CC(OC2C(C)OC(OC3C(C)OC(OC4C(C)OC(O[C@H]5CC[C@@]6(C)C(=CC[C@]7(O)[C@@H]6C[C@@H](O)[C@@]6(C)[C@]7(O)CC[C@@]6(O)C(C)=O)C5)CC4OC)CC3OC)CC2OC)OC(C)C1O (stereo not given in full),> 12.5
12,Cc1ccc2c(c1C)C(=O)/C(=C/c1cccc(C)c1C(=O)O)C2,> 100
13,O=C1N(c2ccccc2)C(=S)/C(=C/c2ccc(Cl)cc2)N1c1ccc(Cl)cc1,> 100
14,O=C1C=C(N2CCN(CCOCCO)CC2)C(=O)c2c(O)ccc(O)c21,26.5
15,CC/C(N)=N\NC(=O)OC(C)(C)C,> 100
16,CC(=O)NC1C(OCc2ccccc2)OC(CO)C(O)C1OCC(=O)N[C@@H](C)C(=O)N[C@H](CCC(=O)NCCCNc1ccc([N+](=O)[O-])c2[nH]c3ccccc3c(=O)c12)C(N)=O (stereo not given in full),> 100
17,CCOC(=O)c1cc(Br)c(-c2cc(C)co2)[nH]1,> 100
18,O=P(O)(O)CN1CCNCCN(CP(=O)(O)O)CC1,> 100
19,c1cc2c(cc1C1=NCCN1)c1cc(C3=NCCN3)ccc1n2CC1CCCCC1,> 100

# System: HOP-62 NSCLC
# Test: DTP human tumour cell line panel, 48 h
row,Structure (SMILES),TGI [µM]
1,COc1cc2c3c(cc(Cl)nc3c1OC)C(O)(CC(=O)c1ccccc1)C(=O)N2 (stereo not given),36
2,Cc1ccc(S[C@@H](C)[C@@](O)(C(N)=O)c2ccccc2)cc1,62.6
3,CN1CCN([C@H]2C[C@H]3[C@@H]4CC=C5C[C@@H](O)CC[C@]5(C)[C@H]4CC[C@]3(C)[C@H]2O)CC1,> 100
4,CC(C)c1ccc(/C=C2\CSCC3=C2N=C2SCC(=O)N2C3c2ccc(C(C)C)cc2)cc1 (stereo not given),> 100
5,CCOC(=O)CCC(NC(=O)c1ccc(Nc2nc3ccccc3nc2C(=O)OCC)cc1)C(=O)OCC (stereo not given),12.4
6,CC(=O)c1sc2[n+](c1C)C(=O)/C(=C\c1ccccc1Cl)S2,47.7
7,CC(NC(=O)C(Cc1ccc(OC(=O)c2ccccc2)cc1)NC(=O)OC(C)(C)C)C(=O)NCC(=O)NC(Cc1ccccc1)C(=O)NN (stereo not given),> 100
8,C[C@H](CCC(=O)NCC(=O)O)[C@H]1CC[C@H]2[C@@H]3[C@H](O)C[C@@H]4C[C@H](O)CC[C@]4(C)[C@H]3CC[C@]12C,> 100
9,CN(C)/C=C/C=C(/C=N/S(=O)(=O)C(F)(F)F)C1C=CN(S(=O)(=O)C(F)(F)F)C=C1,> 100
10,Cc1cc(=O)oc2c(CNC(CC(C)C)C(=O)O)c(O)ccc12 (stereo not given),> 100
11,COC1CC(OC2C(C)OC(OC3C(C)OC(OC4C(C)OC(O[C@H]5CC[C@@]6(C)C(=CC[C@]7(O)[C@@H]6C[C@@H](O)[C@@]6(C)[C@]7(O)CC[C@@]6(O)C(C)=O)C5)CC4OC)CC3OC)CC2OC)OC(C)C1O (stereo not given in full),> 12.5
12,Cc1ccc2c(c1C)C(=O)/C(=C/c1cccc(C)c1C(=O)O)C2,> 100
13,O=C1N(c2ccccc2)C(=S)/C(=C/c2ccc(Cl)cc2)N1c1ccc(Cl)cc1,> 100
14,O=C1C=C(N2CCN(CCOCCO)CC2)C(=O)c2c(O)ccc(O)c21,32.7
15,CC/C(N)=N\NC(=O)OC(C)(C)C,> 100
16,CC(=O)NC1C(OCc2ccccc2)OC(CO)C(O)C1OCC(=O)N[C@@H](C)C(=O)N[C@H](CCC(=O)NCCCNc1ccc([N+](=O)[O-])c2[nH]c3ccccc3c(=O)c12)C(N)=O (stereo not given in full),> 100
17,CCOC(=O)c1cc(Br)c(-c2cc(C)co2)[nH]1,> 100
18,O=P(O)(O)CN1CCNCCN(CP(=O)(O)O)CC1,> 100
19,c1cc2c(cc1C1=NCCN1)c1cc(C3=NCCN3)ccc1n2CC1CCCCC1,94.8

# System: MDA-MB-231 breast
# Test: DTP human tumour cell line panel, 48 h
row,Structure (SMILES),TGI [µM]
1,COc1cc2c3c(cc(Cl)nc3c1OC)C(O)(CC(=O)c1ccccc1)C(=O)N2 (stereo not given),31.2
2,Cc1ccc(S[C@@H](C)[C@@](O)(C(N)=O)c2ccccc2)cc1,46
3,CN1CCN([C@H]2C[C@H]3[C@@H]4CC=C5C[C@@H](O)CC[C@]5(C)[C@H]4CC[C@]3(C)[C@H]2O)CC1,> 64.7
4,CC(C)c1ccc(/C=C2\CSCC3=C2N=C2SCC(=O)N2C3c2ccc(C(C)C)cc2)cc1 (stereo not given),> 100
5,CCOC(=O)CCC(NC(=O)c1ccc(Nc2nc3ccccc3nc2C(=O)OCC)cc1)C(=O)OCC (stereo not given),> 23.8
6,CC(=O)c1sc2[n+](c1C)C(=O)/C(=C\c1ccccc1Cl)S2,52.9
7,CC(NC(=O)C(Cc1ccc(OC(=O)c2ccccc2)cc1)NC(=O)OC(C)(C)C)C(=O)NCC(=O)NC(Cc1ccccc1)C(=O)NN (stereo not given),> 100
8,C[C@H](CCC(=O)NCC(=O)O)[C@H]1CC[C@H]2[C@@H]3[C@H](O)C[C@@H]4C[C@H](O)CC[C@]4(C)[C@H]3CC[C@]12C,> 100
9,CN(C)/C=C/C=C(/C=N/S(=O)(=O)C(F)(F)F)C1C=CN(S(=O)(=O)C(F)(F)F)C=C1,81.7
10,Cc1cc(=O)oc2c(CNC(CC(C)C)C(=O)O)c(O)ccc12 (stereo not given),> 100
11,COC1CC(OC2C(C)OC(OC3C(C)OC(OC4C(C)OC(O[C@H]5CC[C@@]6(C)C(=CC[C@]7(O)[C@@H]6C[C@@H](O)[C@@]6(C)[C@]7(O)CC[C@@]6(O)C(C)=O)C5)CC4OC)CC3OC)CC2OC)OC(C)C1O (stereo not given in full),> 12.5
12,Cc1ccc2c(c1C)C(=O)/C(=C/c1cccc(C)c1C(=O)O)C2,> 100
13,O=C1N(c2ccccc2)C(=S)/C(=C/c2ccc(Cl)cc2)N1c1ccc(Cl)cc1,90.5
14,O=C1C=C(N2CCN(CCOCCO)CC2)C(=O)c2c(O)ccc(O)c21,21.8
15,CC/C(N)=N\NC(=O)OC(C)(C)C,> 100
16,CC(=O)NC1C(OCc2ccccc2)OC(CO)C(O)C1OCC(=O)N[C@@H](C)C(=O)N[C@H](CCC(=O)NCCCNc1ccc([N+](=O)[O-])c2[nH]c3ccccc3c(=O)c12)C(N)=O (stereo not given in full),> 100
17,CCOC(=O)c1cc(Br)c(-c2cc(C)co2)[nH]1,> 100
18,O=P(O)(O)CN1CCNCCN(CP(=O)(O)O)CC1,> 100
19,c1cc2c(cc1C1=NCCN1)c1cc(C3=NCCN3)ccc1n2CC1CCCCC1,> 100

# System: K-562 leukemia
# Test: DTP human tumour cell line panel, 48 h
row,Structure (SMILES),TGI [µM]
1,COc1cc2c3c(cc(Cl)nc3c1OC)C(O)(CC(=O)c1ccccc1)C(=O)N2 (stereo not given),16.7
2,Cc1ccc(S[C@@H](C)[C@@](O)(C(N)=O)c2ccccc2)cc1,44.5
3,CN1CCN([C@H]2C[C@H]3[C@@H]4CC=C5C[C@@H](O)CC[C@]5(C)[C@H]4CC[C@]3(C)[C@H]2O)CC1,39.7
4,CC(C)c1ccc(/C=C2\CSCC3=C2N=C2SCC(=O)N2C3c2ccc(C(C)C)cc2)cc1 (stereo not given),> 100
5,CCOC(=O)CCC(NC(=O)c1ccc(Nc2nc3ccccc3nc2C(=O)OCC)cc1)C(=O)OCC (stereo not given),> 100
6,CC(=O)c1sc2[n+](c1C)C(=O)/C(=C\c1ccccc1Cl)S2,80.6
7,CC(NC(=O)C(Cc1ccc(OC(=O)c2ccccc2)cc1)NC(=O)OC(C)(C)C)C(=O)NCC(=O)NC(Cc1ccccc1)C(=O)NN (stereo not given),76.4
8,C[C@H](CCC(=O)NCC(=O)O)[C@H]1CC[C@H]2[C@@H]3[C@H](O)C[C@@H]4C[C@H](O)CC[C@]4(C)[C@H]3CC[C@]12C,> 100
9,CN(C)/C=C/C=C(/C=N/S(=O)(=O)C(F)(F)F)C1C=CN(S(=O)(=O)C(F)(F)F)C=C1,> 100
